According to patent US20250282799A1, “SUBSTITUTED PYRIDO[4,3-d]PYRIMIDINES AS KRAS MODULATORS” (Alterome Therapeutics, Inc., priority 2023, published 2025):

Test system: KRAS G12V dependent lung adenocarcinoma cell line, NCI-H441
Assay: Cellular pERK (Thr202/Tyr204) FRET/HTRF assay
Format: cell-based
Settings: Homo sapiens, NCI-H441, cellular pERK (Thr202/Tyr204) HTRF, NCI-H441 cells
Procedure, shortened: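 Phospho-ERK1/2 (Thr202/Tyr204) quantified by two-antibody HTRF in lysed NCI-H441 cells. Cells seeded overnight, treated with test compounds for 1 hr at 37 °C against DMSO control, then lysed and detected at room temperature; IC50 obtained by curve fitting.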

SMILES | IC50 [nM]
[2H]C([2H])(Oc1nc(N2CCOC[C@H]3[C@H](Cl)[C@H]32)c2cnc(-c3cccc4ccc(F)c(C#C)c34)c(F)c2n1)[C@@]12CCCN1C[C@H](F)C2 [Example 290, (1S,7S,8S)-8-chloro-2-(7-(8-ethynyl-7-fluoronaphthalen-1-yl)-8-fluoro-2-(((2R,7aS)-2-fluorotetrahydro-1H-pyrrolizin-7a(5H)-yl)methoxy-d2)pyrido[4,3-d]pyrimidin-4-yl)-5-oxa-2-azabicyclo[5.1.0]octane] | < 50
[2H]C([2H])(Oc1nc(N2CCOC[C@H]3[C@H](F)[C@H]32)c2c(Cl)nc(-c3cc(N)cc4ccc(F)c(C#C)c34)c(F)c2n1)[C@@]12CCCN1C[C@H](F)C2 [Example 291, 4-(5-Chloro-8-fluoro-4-((1S,7S,8S)-8-fluoro-5-oxa-2-azabicyclo[5.1.0]octan-2-yl)-2-(((2R,7aS)-2-fluorotetrahydro-1H-pyrrolizin-7a(5H)-yl)methoxy-d2)pyrido[4,3-d]pyrimidin-7-yl)-5-ethynyl-6-fluoronaphthalen-2-amine] | < 50
[2H]C([2H])(Oc1nc(N2CCCOC3C2C3(Cl)Cl)c2cnc(-c3cc(N)cc4ccc(F)c(C#C)c34)c(F)c2n1)[C@@]12CCCN1C[C@H](F)C2 (stereo partly drawn) [Example 292, 4-(4-(8,8-dichloro-2-oxa-6-azabicyclo[5.1.0]octan-6-yl)-8-fluoro-2-(((2R,7aS)-2-fluorotetrahydro-1H-pyrrolizin-7a(5H)-yl)methoxy-d2)pyrido[4,3-d]pyrimidin-7-yl)-5-ethynyl-6-fluoronaphthalen-2-amine] | 50 to 500
C#Cc1cccc2cc(O)cc(-c3ncc4c(N5CCOC[C@H]6[C@H](F)[C@H]65)nc(OC[C@@H]5CCCN5C)nc4c3F)c12 [Example 295, 5-ethynyl-4-(8-fluoro-4-((1S,7S,8S)-8-fluoro-5-oxa-2-azabicyclo[5.1.0]octan-2-yl)-2-(((S)-1-methylpyrrolidin-2-yl)methoxy)pyrido[4,3-d]pyrimidin-7-yl)naphthalen-2-ol] | < 50
C#Cc1c(Cl)ccc2cc(N)cc(-c3ncc4c(N5CCOC[C@H]6[C@H](F)[C@H]65)nc(OC[C@@H]5CCCN5C)nc4c3F)c12 [Example 296, 6-chloro-5-ethynyl-4-(8-fluoro-4-((1S,7S,8S)-8-fluoro-5-oxa-2-azabicyclo[5.1.0]octan-2-yl)-2-(((S)-1-methylpyrrolidin-2-yl)methoxy)pyrido[4,3-d]pyrimidin-7-yl)naphthalen-2-amine] | < 50
[2H]C([2H])(Oc1nc(N2CCOC[C@H]3[C@H](F)[C@H]32)c2cnc(-c3cc(N)c(F)cc3C(F)(F)F)c(F)c2n1)[C@@]12CCCN1C[C@H](F)C2 [Example 299, 2-fluoro-5-(8-fluoro-4-((1S,7S,8S)-8-fluoro-5-oxa-2-azabicyclo[5.1.0]octan-2-yl)-2-(((2R,7aS)-2-fluorotetrahydro-1H-pyrrolizin-7a(5H)-yl)methoxy-d2)pyrido[4,3-d]pyrimidin-7-yl)-4-(trifluoromethyl)aniline] | 50 to 500
C#Cc1c(F)ccc2cc(N)cc(-c3ncc4c(N5CCOC[C@H]6[C@H](Cl)[C@H]65)nc(OC[C@@H]5CCCN5C)nc4c3F)c12 [Example 302, 4-(4-((1S,7S,8S)-8-chloro-5-oxa-2-azabicyclo[5.1.0]octan-2-yl)-8-fluoro-2-(((S)-1-methylpyrrolidin-2-yl)methoxy)pyrido[4,3-d]pyrimidin-7-yl)-5-ethynyl-6-fluoronaphthalen-2-amine] | < 50
[2H]C([2H])(Oc1nc(N2CCOC[C@H]3[C@H](F)[C@H]32)c2c(F)nc(-c3cc(N)cc4ccc(F)c(C#C)c34)c(F)c2n1)[C@@]12CCCN1C[C@H](F)C2 [Example 303, 4-(5,8-Difluoro-4-((1S,7S,8S)-8-fluoro-5-oxa-2-azabicyclo[5.1.0]octan-2-yl)-2-(((2R,7aS)-2-fluorotetrahydro-1H-pyrrolizin-7a(5H)-yl)methoxy-d2)pyrido[4,3-d]pyrimidin-7-yl)-5-ethynyl-6-fluoronaphthalen-2-amine] | < 50
[2H]C([2H])(Oc1nc(N2CC[C@@H](C#N)C[C@H]3[C@H](F)[C@H]32)c2cnc(-c3cc(N)cc4ccc(F)c(C#C)c34)c(F)c2n1)[C@@]12CCCN1C[C@H](F)C2 [Example 304, (1S,5S,7R,8S)-2-(7-(3-amino-8-ethynyl-7-fluoronaphthalen-1-yl)-8-fluoro-2-(((2R,7aS)-2-fluorotetrahydro-1H-pyrrolizin-7a(5H)-yl)methoxy-d2)pyrido[4,3-d]pyrimidin-4-yl)-8-fluoro-2-azabicyclo[5.1.0]octane-5-carbonitrile] | < 50
[2H]C([2H])(Oc1nc(N2CC[C@@H](C#N)C[C@@H]3[C@@H](F)[C@@H]32)c2cnc(-c3cc(N)cc4ccc(F)c(C#C)c34)c(F)c2n1)[C@@]12CCCN1C[C@H](F)C2 [Example 305, (1R,5S,7S,8R)-2-(7-(3-amino-8-ethynyl-7-fluoronaphthalen-1-yl)-8-fluoro-2-(((2R,7aS)-2-fluorotetrahydro-1H-pyrrolizin-7a(5H)-yl)methoxy-d2)pyrido[4,3-d]pyrimidin-4-yl)-8-fluoro-2-azabicyclo[5.1.0]octane-5-carbonitrile] | 50 to 500
[2H]C([2H])(Oc1nc(N2CC[C@H](C#N)C[C@@H]3[C@@H](F)[C@@H]32)c2cnc(-c3cc(N)cc4ccc(F)c(C#C)c34)c(F)c2n1)[C@@]12CCCN1C[C@H](F)C2 [Example 307, (1R,5R,7S,8R)-2-(7-(3-amino-8-ethynyl-7-fluoronaphthalen-1-yl)-8-fluoro-2-(((2R,7aS)-2-fluorotetrahydro-1H-pyrrolizin-7a(5H)-yl)methoxy-d2)pyrido[4,3-d]pyrimidin-4-yl)-8-fluoro-2-azabicyclo[5.1.0]octane-5-carbonitrile] | 50 to 500
[2H]C([2H])(Oc1nc(N2CC[C@H](C#N)C[C@H]3[C@@H](F)[C@H]32)c2cnc(-c3cc(N)cc4ccc(F)c(C#C)c34)c(F)c2n1)[C@@]12CCCN1C[C@H](F)C2 [Example 310, (1S,5R,7R,8R)-2-(7-(3-amino-8-ethynyl-7-fluoronaphthalen-1-yl)-8-fluoro-2-(((2R,7aS)-2-fluorotetrahydro-1H-pyrrolizin-7a(5H)-yl)methoxy-d2)pyrido[4,3-d]pyrimidin-4-yl)-8-fluoro-2-azabicyclo[5.1.0]octane-5-carbonitrile] | 50 to 500

Second part, the compound after the results:

IC50 [nM] | SMILES
< 50 | C#Cc1c(Cl)ccc2cc(O)cc(-c3ncc4c(N5CCOC[C@H]6[C@H](F)[C@H]65)nc(OC[C@@H]5CCCN5C)nc4c3F)c12 [Example 294, 6-chloro-5-ethynyl-4-(8-fluoro-4-((1S,7S,8S)-8-fluoro-5-oxa-2-azabicyclo[5.1.0]octan-2-yl)-2-(((S)-1-methylpyrrolidin-2-yl)methoxy)pyrido[4,3-d]pyrimidin-7-yl)naphthalen-2-ol]
< 50 | C#Cc1cccc2cc(N)cc(-c3ncc4c(N5CCOC[C@H]6[C@H](F)[C@H]65)nc(OC[C@@H]5CCCN5C)nc4c3F)c12 [Example 297, 5-ethynyl-4-(8-fluoro-4-((1S,7S,8S)-8-fluoro-5-oxa-2-azabicyclo[5.1.0]octan-2-yl)-2-(((S)-1-methylpyrrolidin-2-yl)methoxy)pyrido[4,3-d]pyrimidin-7-yl)naphthalen-2-amine]
< 50 | [2H]C([2H])(Oc1nc(N2CCOC[C@H]3[C@H](F)[C@H]32)c2cnc(-c3cc(O)cc(Cl)c3C(F)(F)F)c(F)c2n1)[C@@]12CCCN1C[C@H](F)C2 [Example 298, 3-chloro-5-(8-fluoro-4-((1S,7S,8S)-8-fluoro-5-oxa-2-azabicyclo[5.1.0]octan-2-yl)-2-(((2R,7aS)-2-fluorotetrahydro-1H-pyrrolizin-7a(5H)-yl)methoxy-d2)pyrido[4,3-d]pyrimidin-7-yl)-4-(trifluoromethyl)phenol]
< 50 | [2H]C([2H])(Oc1nc(N2CCOC[C@H]3[C@H](F)[C@H]32)c2cnc(-c3cc(O)cc4cccc(C#C)c34)c(F)c2n1)[C@@]12CCCN1C[C@H](F)C2 [Example 300, 5-ethynyl-4-(8-fluoro-4-((1S,7S,8S)-8-fluoro-5-oxa-2-azabicyclo[5.1.0]octan-2-yl)-2-(((2R,7aS)-2-fluorotetrahydro-1H-pyrrolizin-7a(5H)-yl)methoxy-d2)pyrido[4,3-d]pyrimidin-7-yl)naphthalen-2-ol]
50 to 500 | C#Cc1c(F)ccc2cc(N)cc(-c3ncc4c(N5CCOC[C@@H]6[C@@H](Cl)[C@@H]65)nc(OC[C@@H]5CCCN5C)nc4c3F)c12 [Example 301, 4-(4-((1R,7R,8R)-8-chloro-5-oxa-2-azabicyclo[5.1.0]octan-2-yl)-8-fluoro-2-(((S)-1-methylpyrrolidin-2-yl)methoxy)pyrido[4,3-d]pyrimidin-7-yl)-5-ethynyl-6-fluoronaphthalen-2-amine]
50 to 500 | [2H]C([2H])(Oc1nc(N2CC[C@H](C#N)C[C@H]3[C@H](F)[C@H]32)c2cnc(-c3cc(N)cc4ccc(F)c(C#C)c34)c(F)c2n1)[C@@]12CCCN1C[C@H](F)C2 [Example 306, (1S,5R,7R,8S)-2-(7-(3-amino-8-ethynyl-7-fluoronaphthalen-1-yl)-8-fluoro-2-(((2R,7aS)-2-fluorotetrahydro-1H-pyrrolizin-7a(5H)-yl)methoxy-d2)pyrido[4,3-d]pyrimidin-4-yl)-8-fluoro-2-azabicyclo[5.1.0]octane-5-carbonitrile]
50 to 500 | [2H]C([2H])(Oc1nc(N2CC[C@@H](C#N)C[C@H]3[C@@H](F)[C@H]32)c2cnc(-c3cc(N)cc4ccc(F)c(C#C)c34)c(F)c2n1)[C@@]12CCCN1C[C@H](F)C2 [Example 308, (1S,5S,7R,8R)-2-(7-(3-amino-8-ethynyl-7-fluoronaphthalen-1-yl)-8-fluoro-2-(((2R,7aS)-2-fluorotetrahydro-1H-pyrrolizin-7a(5H)-yl)methoxy-d2)pyrido[4,3-d]pyrimidin-4-yl)-8-fluoro-2-azabicyclo[5.1.0]octane-5-carbonitrile]
